Results published in US8252799B2, “Hexahydro-1H-4,7-methanoisoindole-1,3-dione compounds” (Merck Sharp & Dohme Corp., priority 2007, dated 2012).

Experiments:
[1] = target: T1, α1A (Homo sapiens, UniProt P35348); assay: In Vitro Affinity (Ki) on Human Receptors: α1A; format: binding; details: human receptor
T1 sequence (P35348 1-466): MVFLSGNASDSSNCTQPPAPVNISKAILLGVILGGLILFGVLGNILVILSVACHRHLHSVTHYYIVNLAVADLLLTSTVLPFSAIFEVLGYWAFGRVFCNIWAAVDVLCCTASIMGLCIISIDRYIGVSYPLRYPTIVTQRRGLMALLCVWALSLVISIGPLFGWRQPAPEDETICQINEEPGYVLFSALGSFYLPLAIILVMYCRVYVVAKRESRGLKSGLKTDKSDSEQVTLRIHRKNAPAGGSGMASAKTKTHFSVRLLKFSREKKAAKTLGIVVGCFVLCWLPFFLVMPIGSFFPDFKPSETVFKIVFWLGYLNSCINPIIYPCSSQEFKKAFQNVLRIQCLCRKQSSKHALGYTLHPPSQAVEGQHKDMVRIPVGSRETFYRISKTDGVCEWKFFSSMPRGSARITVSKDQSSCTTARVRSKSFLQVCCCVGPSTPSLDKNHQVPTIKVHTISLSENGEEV

[2] = target: T2, 5HT2A (Homo sapiens, UniProt P28223); assay: Functional Potency (IC50) on Human Receptors: 5HT2A; format: biochemical; details: human receptor
[3] = target: T3, D1 (Homo sapiens, UniProt P21728); assay: In Vitro Affinity (Ki) on Human Receptors: D1; format: binding; details: human receptor
[4] = target: T4, α1D (Homo sapiens, UniProt P25100); assay: In Vitro Affinity (Ki) on Human Receptors: α1D; format: binding; details: human receptor
T4 sequence (P25100 1-572): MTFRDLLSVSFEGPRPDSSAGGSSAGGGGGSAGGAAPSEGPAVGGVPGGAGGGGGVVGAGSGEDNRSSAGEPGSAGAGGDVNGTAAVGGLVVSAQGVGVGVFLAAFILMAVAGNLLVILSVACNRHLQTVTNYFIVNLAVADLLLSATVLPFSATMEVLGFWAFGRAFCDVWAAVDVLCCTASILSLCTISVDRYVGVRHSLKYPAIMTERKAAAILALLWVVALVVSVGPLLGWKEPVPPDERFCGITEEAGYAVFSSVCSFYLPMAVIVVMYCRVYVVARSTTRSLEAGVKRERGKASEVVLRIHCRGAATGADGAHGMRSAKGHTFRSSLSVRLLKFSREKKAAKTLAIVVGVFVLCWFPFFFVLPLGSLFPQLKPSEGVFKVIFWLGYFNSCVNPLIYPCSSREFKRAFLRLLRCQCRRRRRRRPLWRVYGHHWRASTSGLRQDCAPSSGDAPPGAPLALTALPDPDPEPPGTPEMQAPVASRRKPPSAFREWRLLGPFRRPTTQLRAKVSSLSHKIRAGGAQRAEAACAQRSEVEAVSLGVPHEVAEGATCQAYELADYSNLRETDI

[5] = target: T5, α2C (Homo sapiens, UniProt P18825); assay: Functional Potency (IC50) on Human Receptors: α2C; format: biochemical; details: human receptor
T5 sequence (P18825 1-462): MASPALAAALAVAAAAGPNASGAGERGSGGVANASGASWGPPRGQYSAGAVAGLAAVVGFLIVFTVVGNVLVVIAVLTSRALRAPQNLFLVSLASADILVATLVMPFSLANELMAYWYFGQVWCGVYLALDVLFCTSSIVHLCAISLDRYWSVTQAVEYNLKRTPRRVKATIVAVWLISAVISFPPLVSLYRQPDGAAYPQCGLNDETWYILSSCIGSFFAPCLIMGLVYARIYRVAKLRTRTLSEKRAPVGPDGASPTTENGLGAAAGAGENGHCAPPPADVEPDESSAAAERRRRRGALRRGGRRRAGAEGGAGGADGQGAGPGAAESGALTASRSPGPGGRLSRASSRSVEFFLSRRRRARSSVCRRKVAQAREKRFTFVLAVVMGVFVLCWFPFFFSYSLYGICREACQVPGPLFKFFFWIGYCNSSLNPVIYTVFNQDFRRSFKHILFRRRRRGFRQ

[6] = target: T6, D2 (Homo sapiens, UniProt P14416); assay: Functional Potency (IC50) on Human Receptors: D2; format: biochemical; details: human receptor
[7] = target: T7, 5HT1A (native) (Homo sapiens, UniProt P08908); assay: In Vitro Affinity (Ki) on Human Receptors: 5HT1A (native); format: binding; details: human receptor
T7 construct: 5HT1A (native) 8 nM
T7 sequence (P08908 1-422): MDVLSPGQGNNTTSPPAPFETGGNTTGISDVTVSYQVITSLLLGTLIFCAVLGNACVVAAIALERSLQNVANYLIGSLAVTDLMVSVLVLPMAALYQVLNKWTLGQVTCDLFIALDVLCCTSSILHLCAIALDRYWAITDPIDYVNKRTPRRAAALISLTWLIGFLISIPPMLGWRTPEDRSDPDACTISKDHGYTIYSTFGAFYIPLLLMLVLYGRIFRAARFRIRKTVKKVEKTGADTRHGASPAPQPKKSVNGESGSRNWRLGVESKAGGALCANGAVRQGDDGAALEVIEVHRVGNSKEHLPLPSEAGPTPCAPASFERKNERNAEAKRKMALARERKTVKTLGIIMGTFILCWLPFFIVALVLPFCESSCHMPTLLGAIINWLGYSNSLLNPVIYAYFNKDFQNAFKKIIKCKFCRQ

[8] = target: D3 (Homo sapiens, UniProt P35462); assay: In Vitro Affinity (Ki) on Human Receptors: D3; format: binding; details: human receptor
[9] = target: T2, 5HT2A; assay: In Vitro Affinity (Ki) on Human Receptors: 5HT2A; format: binding; details: human receptor
[10] = target: T8, α2A (Homo sapiens, UniProt P08913); assay: In Vitro Affinity (Ki) on Human Receptors: α2A; format: binding; details: human receptor
T8 sequence (P08913 1-465): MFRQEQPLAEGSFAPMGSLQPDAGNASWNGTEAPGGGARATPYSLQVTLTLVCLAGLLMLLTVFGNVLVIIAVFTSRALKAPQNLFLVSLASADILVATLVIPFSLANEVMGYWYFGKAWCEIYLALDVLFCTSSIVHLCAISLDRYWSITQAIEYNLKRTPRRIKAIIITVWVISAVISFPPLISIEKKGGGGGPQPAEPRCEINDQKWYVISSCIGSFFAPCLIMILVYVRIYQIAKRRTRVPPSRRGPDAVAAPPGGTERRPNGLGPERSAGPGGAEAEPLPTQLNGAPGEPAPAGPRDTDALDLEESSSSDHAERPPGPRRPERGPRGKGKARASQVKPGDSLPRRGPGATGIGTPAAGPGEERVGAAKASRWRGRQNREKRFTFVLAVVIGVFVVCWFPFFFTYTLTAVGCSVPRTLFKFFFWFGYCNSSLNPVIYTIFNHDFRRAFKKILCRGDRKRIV

[11] = target: T9, hERG (Homo sapiens, UniProt Q12809); assay: In Vitro Affinity (Ki) on Human Receptors: hERG; format: binding
[12] = target: T6, D2; assay: In Vitro Affinity (Ki) on Human Receptors: D2; format: binding; details: human receptor
[13] = target: T8, α2A; assay: Functional Potency (IC50) on Human Receptors: α2A; format: biochemical; details: human receptor
[14] = target: T10, 5HT1A (Homo sapiens, UniProt P08908); assay: Functional Potency on Human Receptors: 5HT1A; format: biochemical; details: human receptor
T10 sequence (P08908 1-422): T7 sequence (P08908 1-422)

[15] = target: T11, 5HT2C (Homo sapiens, UniProt P28335); assay: In Vitro Affinity (Ki) on Human Receptors: 5HT2C; format: binding; details: human receptor
[16] = target: T12, H1 (Homo sapiens, UniProt P35367); assay: In Vitro Affinity (Ki) on Human Receptors: H1; format: binding; details: human receptor
[17] = target: T11, 5HT2C; assay: Functional Potency (IC50) on Human Receptors: 5HT2C; format: biochemical; details: human receptor
[18] = target: T5, α2C; assay: In Vitro Affinity (Ki) on Human Receptors: α2C; format: binding; details: human receptor
[19] = target: T9, hERG; assay: Functional Potency (IC50) on Human Receptors: hERG; format: biochemical
[20] = target: T3, D1; assay: Functional Potency (IC50) on Human Receptors: D1; format: biochemical; details: human receptor
[21] = target: T12, H1; assay: Functional Potency (IC50) on Human Receptors: H1; format: biochemical; details: human receptor

T3 sequence (P21728 whole entry): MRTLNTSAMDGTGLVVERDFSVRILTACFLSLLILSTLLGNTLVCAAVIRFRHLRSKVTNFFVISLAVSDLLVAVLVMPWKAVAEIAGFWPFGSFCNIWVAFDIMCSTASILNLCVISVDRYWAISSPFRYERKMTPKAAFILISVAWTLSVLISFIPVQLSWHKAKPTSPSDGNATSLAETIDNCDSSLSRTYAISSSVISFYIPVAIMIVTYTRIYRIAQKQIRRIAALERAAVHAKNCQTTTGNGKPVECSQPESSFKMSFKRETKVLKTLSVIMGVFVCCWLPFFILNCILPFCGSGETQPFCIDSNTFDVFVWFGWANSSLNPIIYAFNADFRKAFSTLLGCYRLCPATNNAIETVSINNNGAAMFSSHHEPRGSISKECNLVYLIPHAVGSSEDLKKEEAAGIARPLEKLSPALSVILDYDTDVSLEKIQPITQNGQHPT
T11 sequence (P28335 33-458): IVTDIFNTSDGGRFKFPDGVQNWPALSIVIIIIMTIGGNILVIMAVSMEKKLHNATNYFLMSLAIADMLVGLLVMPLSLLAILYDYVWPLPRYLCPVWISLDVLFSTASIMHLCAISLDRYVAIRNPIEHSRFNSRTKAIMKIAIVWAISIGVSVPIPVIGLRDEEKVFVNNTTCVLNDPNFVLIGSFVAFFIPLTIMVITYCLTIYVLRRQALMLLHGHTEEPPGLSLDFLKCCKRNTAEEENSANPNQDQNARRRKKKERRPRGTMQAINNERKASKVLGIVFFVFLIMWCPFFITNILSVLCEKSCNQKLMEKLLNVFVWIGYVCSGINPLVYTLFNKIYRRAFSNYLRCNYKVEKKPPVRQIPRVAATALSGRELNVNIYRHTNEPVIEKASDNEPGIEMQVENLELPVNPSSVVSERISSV
T6 sequence (P14416 whole entry): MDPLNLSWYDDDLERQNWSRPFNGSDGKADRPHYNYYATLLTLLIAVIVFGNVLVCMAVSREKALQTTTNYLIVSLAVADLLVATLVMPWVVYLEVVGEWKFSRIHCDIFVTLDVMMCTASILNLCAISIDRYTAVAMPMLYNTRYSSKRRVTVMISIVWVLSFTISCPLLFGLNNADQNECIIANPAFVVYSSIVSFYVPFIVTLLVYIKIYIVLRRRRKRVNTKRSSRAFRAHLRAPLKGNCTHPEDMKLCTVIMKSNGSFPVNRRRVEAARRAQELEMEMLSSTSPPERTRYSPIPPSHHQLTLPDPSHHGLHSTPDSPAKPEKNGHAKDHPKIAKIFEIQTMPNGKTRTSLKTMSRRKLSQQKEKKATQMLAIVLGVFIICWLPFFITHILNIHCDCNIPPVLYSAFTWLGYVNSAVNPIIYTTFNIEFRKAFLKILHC
T2 sequence (P28223 whole entry): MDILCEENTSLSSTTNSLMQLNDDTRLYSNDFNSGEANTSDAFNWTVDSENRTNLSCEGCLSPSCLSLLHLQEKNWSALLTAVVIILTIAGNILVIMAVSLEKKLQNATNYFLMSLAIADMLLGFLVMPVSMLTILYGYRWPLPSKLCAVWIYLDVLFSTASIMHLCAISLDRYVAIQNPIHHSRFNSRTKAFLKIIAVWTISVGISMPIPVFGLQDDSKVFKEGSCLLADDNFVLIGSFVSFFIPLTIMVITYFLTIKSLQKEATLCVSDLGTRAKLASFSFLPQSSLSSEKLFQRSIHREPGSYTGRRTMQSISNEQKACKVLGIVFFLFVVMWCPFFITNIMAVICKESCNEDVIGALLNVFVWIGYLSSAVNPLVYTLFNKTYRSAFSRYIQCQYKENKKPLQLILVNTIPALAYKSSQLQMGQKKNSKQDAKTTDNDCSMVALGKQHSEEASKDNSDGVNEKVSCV
T12 sequence (P35367 whole entry): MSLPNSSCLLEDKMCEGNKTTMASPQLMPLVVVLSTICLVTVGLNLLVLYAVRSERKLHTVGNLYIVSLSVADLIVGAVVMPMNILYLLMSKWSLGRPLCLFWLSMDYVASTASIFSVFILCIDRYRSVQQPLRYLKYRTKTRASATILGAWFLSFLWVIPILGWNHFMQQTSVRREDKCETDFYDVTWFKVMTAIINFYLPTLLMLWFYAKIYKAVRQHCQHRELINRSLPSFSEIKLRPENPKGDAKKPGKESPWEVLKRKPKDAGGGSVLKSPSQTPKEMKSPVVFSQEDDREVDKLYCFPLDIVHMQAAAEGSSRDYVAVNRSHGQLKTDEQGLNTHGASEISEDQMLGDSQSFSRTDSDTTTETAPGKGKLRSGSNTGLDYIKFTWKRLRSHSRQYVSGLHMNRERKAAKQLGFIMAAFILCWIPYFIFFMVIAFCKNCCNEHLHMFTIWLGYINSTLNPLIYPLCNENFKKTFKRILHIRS
T9 sequence (Q12809 whole entry): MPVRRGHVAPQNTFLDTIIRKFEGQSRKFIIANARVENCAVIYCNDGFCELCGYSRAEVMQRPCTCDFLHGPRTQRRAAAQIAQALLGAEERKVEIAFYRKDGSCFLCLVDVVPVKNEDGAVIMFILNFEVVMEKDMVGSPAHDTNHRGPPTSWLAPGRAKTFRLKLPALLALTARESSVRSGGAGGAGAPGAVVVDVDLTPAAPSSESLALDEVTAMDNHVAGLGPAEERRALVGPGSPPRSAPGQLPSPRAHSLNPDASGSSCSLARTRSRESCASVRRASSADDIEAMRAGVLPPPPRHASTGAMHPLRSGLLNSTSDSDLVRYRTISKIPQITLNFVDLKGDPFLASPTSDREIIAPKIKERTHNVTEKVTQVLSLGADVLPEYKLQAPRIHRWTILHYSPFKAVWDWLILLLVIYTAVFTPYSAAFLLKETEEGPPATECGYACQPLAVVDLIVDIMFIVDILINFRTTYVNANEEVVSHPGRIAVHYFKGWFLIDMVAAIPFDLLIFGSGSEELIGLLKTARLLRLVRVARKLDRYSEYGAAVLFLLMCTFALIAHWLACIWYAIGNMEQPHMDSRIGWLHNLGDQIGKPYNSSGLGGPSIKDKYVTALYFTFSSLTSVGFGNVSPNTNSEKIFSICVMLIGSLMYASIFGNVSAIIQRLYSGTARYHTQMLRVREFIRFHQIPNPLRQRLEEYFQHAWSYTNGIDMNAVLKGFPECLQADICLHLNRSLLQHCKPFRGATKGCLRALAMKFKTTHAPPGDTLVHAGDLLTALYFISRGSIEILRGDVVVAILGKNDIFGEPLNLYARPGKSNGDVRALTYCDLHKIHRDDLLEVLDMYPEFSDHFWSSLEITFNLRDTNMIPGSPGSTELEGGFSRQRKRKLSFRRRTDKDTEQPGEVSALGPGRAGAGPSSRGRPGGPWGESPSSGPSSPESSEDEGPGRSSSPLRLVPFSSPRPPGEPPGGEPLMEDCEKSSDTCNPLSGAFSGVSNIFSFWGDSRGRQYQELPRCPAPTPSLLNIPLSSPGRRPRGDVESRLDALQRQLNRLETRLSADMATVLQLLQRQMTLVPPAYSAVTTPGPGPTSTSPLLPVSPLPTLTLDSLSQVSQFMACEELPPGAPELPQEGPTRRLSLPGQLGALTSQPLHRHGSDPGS
Chain of D3 (P35462 whole entry): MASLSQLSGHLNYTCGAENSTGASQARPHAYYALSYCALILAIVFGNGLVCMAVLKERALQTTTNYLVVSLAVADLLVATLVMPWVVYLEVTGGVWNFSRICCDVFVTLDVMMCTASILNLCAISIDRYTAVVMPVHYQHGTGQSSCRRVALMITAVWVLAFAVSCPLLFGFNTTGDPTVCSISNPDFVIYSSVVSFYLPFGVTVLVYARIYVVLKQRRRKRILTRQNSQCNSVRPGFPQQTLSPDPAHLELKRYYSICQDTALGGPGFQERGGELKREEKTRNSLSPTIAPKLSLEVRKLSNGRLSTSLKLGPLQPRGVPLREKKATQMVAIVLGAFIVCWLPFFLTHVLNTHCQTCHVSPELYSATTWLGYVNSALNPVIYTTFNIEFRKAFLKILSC

C[C@@]1(O)CC2CC1[C@@H]1C(=O)N(CC3CCCC[C@H]3CN3CCN(c4nsc5ccccc45)CC3)C(=O)[C@H]21 (stereo in doubt) [(3aS,4S,5R,7S,7aR)-2-[((1R,2R)-2-{[4-(1,2-benzisothiazol-3-yl)piperazin-1-yl]methyl}cyclohexyl)methyl]-5-hydroxy-5-methylhexahydro-1H-4,7-methanoisoindole-1,3-dione] showed a Ki [1] of 31 nM, an IC50 [2] of 32 nM and a Ki [3] of 457 nM. The Ki [4] was 82 nM, the IC50 [5] was 160 nM and the IC50 [6] was 25 nM. The Ki [7] was 8 nM, the Ki [8] was 2 nM and the Ki [9] was < 10 nM. The Ki [10] was 59 nM, the Ki [11] was 644 nM and the Ki [12] was 1 nM. For the same compound, the IC50 [13] was 1220 nM, the EC50 [14] was 98 nM and the “Functional Potency 5HT1A % max” value ([14]; max response) was 77%. The Ki [15] was 16 nM, the Ki [16] was 371 nM and the IC50 [17] was 1710 nM. For the same compound, the Ki [18] was 9 nM, the IC50 [19] was 4000 nM and the IC50 [20] was 1650 nM. It also gave an IC50 [21] of 3100 nM.
